Assay results published in US12171230B2, “Herbicidal compositions” (Bayer Aktiengesellschaft, priority 2018, dated 2024).

Experiments:
Assay type in all cases: in vivo
Amaranthus palmeri = assay: Post-emergence herbicidal action against Amaranthus palmeri; details: 21 DAT; for Herbicidal action: 5 g a.i./ha
Description: (§1) When the observed efficacies exceed the formal sum total of the values of the tests with individual applications, they also exceed the expected value according to Colby, which is calculated using the formula below and is likewise regarded as an indication of synergism (cf. S. R. Colby; in Weeds 15 (1967) p. 20 to 22): E^C=A+B−([…])
(§2) Here: • A=efficacy of the active compound (A) in % at an application rate of a g a.i./ha; • B=efficacy of the active compound (B) in % at an application rate of b g a.i./ha; • E^C=expected value of the effect of the combination (A)+(B) in % at the combined application rate a+b g a.i./ha.
(§3) Seeds or rhizome pieces of mono- and dicotyledonous weeds are placed in sandy loam in pots, covered with soil and grown in a greenhouse under good growth conditions (temperature, air humidity, water supply). Three weeks after sowing, the test plants were treated at the three-leaf stage with the compositions according to the invention. The compositions according to the invention formulated as spray powders or as emulsion concentrates were sprayed onto the green plant parts in various dosages with an application rate of 300 to 800 l/ha of water (equivalent). After the test plants have been left to stand in the greenhouse under optimal growth conditions for about 3 to 4 weeks, the action of the preparations is scored visually in comparison to untreated controls. The compositions according to the invention also have good post-emergence herbicidal activity against a broad spectrum of economically important gramineous and broadleaf weeds.

Bidens pilosa = assay: Post-emergence herbicidal action against Bidens pilosa; details: for Herbicidal action / Herbicidal action against Bidens pilosa: 21 DAT
Description: as §1, §2, §3

Setaria viridis = assay: Post-emergence herbicidal action against Setaria viridis; details: for Herbicidal action / Herbicidal action against Setaria viridis: 21 DAT
Description: as §1, §2, §3

Echinochloa crus-galli = assay: Post-emergence herbicidal action against Echinochloa crus-galli; details: 21 DAT
Description: as §1, §2, §3

Eleusine indica = assay: Post-emergence herbicidal action against Eleusine indica; details: 21 DAT; 1.7 g a.i./ha
Kochia scoparia [1] = assay: Post-emergence herbicidal action against Kochia scoparia; details: 21 DAT
Kochia scoparia [2] = assay: as above
Text: (§4) The following abbreviations are used in the description and the tables that follow: • g of a.i./ha=grams of active substance (active ingredient) (=100% active compound) per hectare; • The sum total of the effects of the individual applications is reported under E^A; • expected values according to Colby are each reported under E^C.
(§5) The rating period is reported in days after application (DAT).

Abutilon theophrasti [3] = assay: Post-emergence herbicidal action against Abutilon theophrasti
Text: as §4, §5

Sorghum halepense = assay: Post-emergence herbicidal action against Sorghum halepense
Description: as §1, §2, §3

Pharbitis purpurea = assay: Post-emergence herbicidal action against Pharbitis purpurea
Description: as §1, §2, §3

Abutilon theophrasti [4] = assay: Post-emergence herbicidal action against Abutilon theophrasti; details: 21 DAT
Brachiaria plantaginea = assay: Post-emergence herbicidal action against Brachiaria plantaginea
Text: as §4, §5

Digitaria horizontalis = assay: Post-emergence herbicidal action against Digitaria horizontalis; details: A3/Asulam, post-emergence, g of a.i./ha by row: 720, 100, 100 + 720
Text: as §4, §5

Brachiaria platyphylla = assay: Post-emergence herbicidal action against Brachiaria platyphylla
Description: as §1, §2, §3

Digitaria sanguinalis = assay: Post-emergence herbicidal action against Digitaria sanguinalis
Description: as §1, §2, §3

Lamium purpureum = assay: Post-emergence herbicidal action against Lamium purpureum
In short: (§6)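 Pot-grown plants, three weeks old at the three-leaf stage, received foliar sprays of various dosages. Visual assessment relative to untreated plants followed 3 to 4 weeks later.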

Poa annua = assay: Post-emergence herbicidal action against Poa annua
In short: as §6

Centaurea cyano = assay: Post-emergence herbicidal action against Centaurea cyano; details: 50 g of a.i./ha
In short: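 Greenhouse pot-grown plants sprayed post-emergence at the three-leaf stage, three weeks after sowing, with spray-powder or emulsion-concentrate formulations at various dosages in 300 to 800 l/ha water on green parts.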

Galium aparine = assay: Post-emergence herbicidal action against Galium aparine
In short: as §6

Matricaria inodora = assay: Post-emergence herbicidal action against Matricaria inodora
[5] = tested on: Lolium rigidum (resistant biotype); assay: Post-emergence herbicidal action against Lolium rigidum (resistant biotype)
Phalaris minor = assay: Post-emergence herbicidal action against Phalaris minor
Veronica hederifolia = assay: Post-emergence herbicidal action against Veronica hederifolia; details: 14 DAT
Alopecurus myosuroides = assay: Post-emergence herbicidal action against Alopecurus myosuroides
Bromus sterilis = assay: Post-emergence herbicidal action against Bromus sterilis
Lolium rigidum = assay: Post-emergence herbicidal action against Lolium rigidum
Viola tricolor = assay: Post-emergence herbicidal action against Viola tricolor

C=CC1(C(=O)N[C@H]2CO[C@@H](C(=O)OC)C2)CC(c2cc(Cl)cc(Cl)c2)=NO1 (relative stereo) [Compound A2, methyl rel-(2R,4R)-4-[[3-(3,5-dichlorophenyl)-5-vinyl-4H-isoxazole-5-carbonyl]amino]tetrahydrofuran-2-carboxylate]
Herbicidal action (Amaranthus palmeri): 45%
Herbicidal action (Bidens pilosa; 5 g a.i./ha): 45%
Herbicidal action (Bidens pilosa; 15 g a.i./ha): 50%
Herbicidal action (Bidens pilosa; 45 g a.i./ha): 70%
Herbicidal action (Setaria viridis; 1.7 g a.i./ha): 10%
Herbicidal action (Echinochloa crus-galli; 15 g a.i./ha): 80%
Herbicidal action (Eleusine indica): 10%
Herbicidal action (Kochia scoparia [1]; 5 g a.i./ha): 40%
Herbicidal action 21 DAT against Kochia scoparia (Kochia scoparia [2]; g of a.i./ha by row: 30, 5, 5 + 30): 40%
Herbicidal action 21 DAT against Abutilon theophrasti (Abutilon theophrasti [3]; g of a.i./ha: 90, 30, 15, 15 + 90, 15 + 30): 75%

CC(C)OC(=O)[C@H]1C[C@@H](NC(=O)C2(C)CC(c3cccc(F)c3)=NO2)CO1 (relative stereo) [Compound A4, isopropyl rel-(2R,4R)-4-[[3-(3-fluorophenyl)-5-methyl-4H-isoxazole-5-carbonyl]amino]tetrahydrofuran-2-carboxylate]
Herbicidal action against Amaranthus palmeri (res.) (Amaranthus palmeri; 15 g of a.i./ha): 10%
Herbicidal action against Amaranthus palmeri (res.) (Amaranthus palmeri; 45 g of a.i./ha): 30%
Herbicidal action (Amaranthus palmeri; (res.)): 10%
Herbicidal action (Bidens pilosa; 5 g a.i./ha): 10%
Herbicidal action against Bidens pilosa (Bidens pilosa; 5 g of a.i./ha): 10%
Herbicidal action (Bidens pilosa; 15 g a.i./ha): 10%
Herbicidal action against Bidens pilosa (Bidens pilosa; 15 g of a.i./ha): 10%
Herbicidal action (Bidens pilosa; 45 g a.i./ha): 30%
Herbicidal action against Setaria viridis (Setaria viridis; 1.5 g of a.i./ha): 10%
Herbicidal action (Setaria viridis; 5 g a.i./ha): 20%
Herbicidal action (Setaria viridis; 15 g a.i./ha): 60%
Herbicidal action against Setaria viridis (Setaria viridis; 15 g of a.i./ha): 60%
Herbicidal action against Sorghum halepense (Sorghum halepense; 21 DAT, 15 g of a.i./ha): 10%
Herbicidal action (Pharbitis purpurea; 21 DAT, 15 g a.i./ha): 60%
Herbicidal action (Echinochloa crus-galli; 5 g a.i./ha): 10%
Herbicidal action against Echinochloa crus-galli (Echinochloa crus-galli; 15 g of a.i./ha): 20%
Herbicidal action (Eleusine indica): 20%
Herbicidal action (Kochia scoparia [1]; 5 g a.i./ha): 10%
Herbicidal action (Kochia scoparia [1]; 15 g a.i./ha): 10%
Herbicidal action against Abutilon theophrasti (Abutilon theophrasti [4]; 5 g of a.i./ha): 10%
Herbicidal action against Abutilon theophrasti (Abutilon theophrasti [4]; 15 g of a.i./ha): 10%
Herbicidal action against Abutilon theophrasti (Abutilon theophrasti [4]; 45 g of a.i./ha): 20%

COC(=O)NS(=O)(=O)c1ccc(N)cc1 [(B2.4) Asulam]
Herbicidal action 28 DAT against Brachiaria plantaginea (Brachiaria plantaginea; A3/Asulam, post-emergence, g of a.i./ha by row: 720, 100, 100 + 720): 0%
Herbicidal action 28 DAT against Digitaria horizontalis (Digitaria horizontalis; first sub-table): 0%
Herbicidal action 28 DAT against Digitaria horizontalis (Digitaria horizontalis; second sub-table): 0%

CCc1cccc(C)c1N(C(=O)CCl)[C@@H](C)COC [(B2.64) S-Metolachlor]
Herbicidal action 21 DAT against Bidens pilosa (Bidens pilosa; 150 g of a.i./ha): 10%
Herbicidal action 21 DAT against Bidens pilosa (Bidens pilosa; 450 g of a.i./ha): 20%
Herbicidal action 21 DAT against Brachiaria platyphylla (Brachiaria platyphylla; 150 g of a.i./ha): 10%
Herbicidal action 21 DAT against Brachiaria platyphylla (Brachiaria platyphylla; 450 g of a.i./ha): 25%
Herbicidal action 21 DAT against Setaria viridis (Setaria viridis; 50 g of a.i./ha): 30%
Herbicidal action 21 DAT against Sorghum halepense (Sorghum halepense; 450 g of a.i./ha): 40%
Herbicidal action 21 DAT against Digitaria sanguinalis (Digitaria sanguinalis; 50 g of a.i./ha): 10%
Herbicidal action 21 DAT against Digitaria sanguinalis (Digitaria sanguinalis; 150 g of a.i./ha): 40%
Herbicidal action 21 DAT against Pharbitis purpurea (Pharbitis purpurea; 150 g of a.i./ha): 0%
Herbicidal action 21 DAT against Pharbitis purpurea (Pharbitis purpurea; 450 g of a.i./ha): 10%
Herbicidal action 21 DAT against Kochia scoparia (Kochia scoparia [2]; 150 g of a.i./ha): 0%
Herbicidal action 21 DAT against Kochia scoparia (Kochia scoparia [2]; 450 g of a.i./ha): 10%
Herbicidal action 21 DAT against Abutilon theophrasti (Abutilon theophrasti [3]; 150 g of a.i./ha): 0%
Herbicidal action 21 DAT against Abutilon theophrasti (Abutilon theophrasti [3]; 450 g of a.i./ha): 10%

N#Cc1cc(Br)c(O)c(Br)c1 [(B3.1) Bromoxynil]
Herbicidal action against Lamium purpureum L. (Lamium purpureum; 14 DAT, 150 g of a.i./ha): 15%
Herbicidal action against Lamium purpureum L. (Lamium purpureum; 14 DAT, 450 g of a.i./ha): 40%
Herbicidal action against Lamium purpureum L. (Lamium purpureum; 28 DAT, 150 g of a.i./ha): 25%
Herbicidal action against Lamium purpureum L. (Lamium purpureum; 28 DAT, 450 g of a.i./ha): 25%
Herbicidal action against Poa annua L. (Poa annua; 14 DAT, 150 g of a.i./ha): 15%
Herbicidal action against Poa annua L. (Poa annua; 14 DAT, 450 g of a.i./ha): 20%
Herbicidal action against Poa annua L. (Poa annua; 28 DAT, 150 g of a.i./ha): 15%
Herbicidal action against Poa annua L. (Poa annua; 28 DAT, 450 g of a.i./ha): 25%
Herbicidal action against Centaurea cyanus (Centaurea cyano; 14 DAT): 30%
Herbicidal action against Centaurea cyanus (Centaurea cyano; 28 DAT): 10%
Herbicidal action against Galium aparine (Galium aparine; 14 DAT, 50 g of a.i./ha): 20%
Herbicidal action against Galium aparine (Galium aparine; 14 DAT, 150 g of a.i./ha): 30%
Herbicidal action against Galium aparine (Galium aparine; 14 DAT, 450 g of a.i./ha): 50%
Herbicidal action against Galium aparine (Galium aparine; 28 DAT, 450 g of a.i./ha): 75%
Herbicidal action against Matricaria inodora (Matricaria inodora; 14 DAT, 50 g of a.i./ha): 40%
Herbicidal action against Matricaria inodora (Matricaria inodora; 14 DAT, 450 g of a.i./ha): 85%
Herbicidal action against Matricaria inodora (Matricaria inodora; 28 DAT, 50 g of a.i./ha): 15%
Herbicidal action against Matricaria inodora (Matricaria inodora; 28 DAT, 450 g of a.i./ha): 80%
Herbicidal action against Lolium rigidum (resistant biotype) ([5]; 14 DAT, 150 g of a.i./ha): 0%
Herbicidal action against Lolium rigidum (resistant biotype) ([5]; 14 DAT, 450 g of a.i./ha): 15%
Herbicidal action against Lolium rigidum (resistant biotype) ([5]; 28 DAT, 150 g of a.i./ha): 10%
Herbicidal action against Lolium rigidum (resistant biotype) ([5]; 28 DAT, 450 g of a.i./ha): 20%
Herbicidal action against Phalaris minor (Phalaris minor; 14 DAT, 50 g of a.i./ha): 0%
Herbicidal action against Phalaris minor (Phalaris minor; 14 DAT, 150 g of a.i./ha): 10%
Herbicidal action against Phalaris minor (Phalaris minor; 14 DAT, 450 g of a.i./ha): 15%
Herbicidal action against Phalaris minor (Phalaris minor; 28 DAT, 150 g of a.i./ha): 0%
Herbicidal action against Phalaris minor (Phalaris minor; 28 DAT, 450 g of a.i./ha): 15%
Herbicidal action against Veronica hederifolia (Veronica hederifolia; 150 g of a.i./ha): 0%
Herbicidal action against Veronica hederifolia (Veronica hederifolia; 450 g of a.i./ha): 20%
Herbicidal action against Alopecurus myosuroides (Alopecurus myosuroides; 14 DAT, 150 g of a.i./ha): 15%
Herbicidal action against Alopecurus myosuroides (Alopecurus myosuroides; 14 DAT, 450 g of a.i./ha): 25%
Herbicidal action against Alopecurus myosuroides (Alopecurus myosuroides; 28 DAT, 150 g of a.i./ha): 15%
Herbicidal action against Alopecurus myosuroides (Alopecurus myosuroides; 28 DAT, 450 g of a.i./ha): 25%
Herbicidal action against Bromus sterilis (Bromus sterilis; 14 DAT, 50 g of a.i./ha): 0%
Herbicidal action against Bromus sterilis (Bromus sterilis; 14 DAT, 150 g of a.i./ha): 10%
Herbicidal action against Bromus sterilis (Bromus sterilis; 14 DAT, 450 g of a.i./ha): 10%
Herbicidal action against Bromus sterilis (Bromus sterilis; 28 DAT, 150 g of a.i./ha): 15%
Herbicidal action against Bromus sterilis (Bromus sterilis; 28 DAT, 450 g of a.i./ha): 20%
Herbicidal action against Lolium rigidum (Lolium rigidum; 14 DAT, 150 g of a.i./ha): 0%
Herbicidal action against Lolium rigidum (Lolium rigidum; 14 DAT, 450 g of a.i./ha): 15%
Herbicidal action against Lolium rigidum (Lolium rigidum; 28 DAT, 150 g of a.i./ha): 10%
Herbicidal action against Lolium rigidum (Lolium rigidum; 28 DAT, 450 g of a.i./ha): 20%
Herbicidal action against Viola tricolor (Viola tricolor; 14 DAT, 50 g of a.i./ha): 15%
Herbicidal action against Viola tricolor (Viola tricolor; 14 DAT, 150 g of a.i./ha): 50%
Herbicidal action against Viola tricolor (Viola tricolor; 14 DAT, 450 g of a.i./ha): 30%
Herbicidal action against Viola tricolor (Viola tricolor; 28 DAT, 50 g of a.i./ha): 25%
Herbicidal action against Viola tricolor (Viola tricolor; 28 DAT, 150 g of a.i./ha): 40%
Herbicidal action against Viola tricolor (Viola tricolor; 28 DAT, 450 g of a.i./ha): 15%

COc1c(Cl)ccc(-c2nc(C(=O)O)c(Cl)c(N)c2F)c1F [(B5.23) Florpyrauxifen]
Herbicidal action 28 DAT [%] against Brachiaria plantaginea (Brachiaria plantaginea; 30 g of a.i./ha): 40%
